Experimental data reported in patent publication US11155586B2, “Cystine knot scaffold platform” (Genentech, Inc., priority 2015, dated 2021).
Read-outs that look alike come from different tables or passages of the source. Positions of bridges follow the written chain, without caps; N, C: chain ends. Residues, ends and D or L forms follow the SMILES beside them.

What was measured:
rabbit VEGF-A = biological target: T1, rabbit VEGF-A (Oryctolagus cuniculus, UniProt G1T1L9); experiment: SPR binding assay; conditions: for ka / kd: rabbit, Table 30
T1 sequence (G1T1L9 1-398): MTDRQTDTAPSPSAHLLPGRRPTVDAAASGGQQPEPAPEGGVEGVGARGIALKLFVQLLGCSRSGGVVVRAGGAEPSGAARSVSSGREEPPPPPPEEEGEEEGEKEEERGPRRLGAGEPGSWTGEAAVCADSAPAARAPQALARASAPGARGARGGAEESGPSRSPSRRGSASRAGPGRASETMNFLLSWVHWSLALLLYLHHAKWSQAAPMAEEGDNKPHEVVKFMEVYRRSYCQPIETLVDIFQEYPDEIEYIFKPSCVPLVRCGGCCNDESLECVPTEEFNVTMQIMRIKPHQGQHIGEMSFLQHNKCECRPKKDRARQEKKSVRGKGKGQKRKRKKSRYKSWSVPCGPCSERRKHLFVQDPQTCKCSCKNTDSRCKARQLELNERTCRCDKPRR
Experimental: Depending on the format of the assay either a streptavidin sensor (SA) or a dextran-coated (CM5) sensor was utilized as described below.
For use with the SA sensor, VEGF-A was first biotinylated (no more than 2 biotin/VEGF-A) by incubating the protein with EZ-link NHS-PEG4-Biotin (Pierce) in a 1:1.5 molar ratio respectively, in PBS for 2 hours on ice. Reaction was then quenched by addition of 10 molar excess of Glycine pH 8.0 and the sample was buffer exchanged into PBS using an Amicon 0.5 mL 3000 MWCO ultra-centrifugal filters (EMD Millipore). The biotinylation state of the protein was verified by LC-MS analysis. Biotinylated VEGF-A was then captured on the surface until a resonance unit (RU) signal of about ˜400. For immobilization of VEGF-A on CM5 sensor, the surface was first activated with a mixture of N-ethyl-N′-(3-dimethylaminopropyl)carbodiimide hydrochloride and N-hydroxysuccinimide (EDC/NHS) according to the supplier instructions. VEGF-A was then diluted into coupling buffer (0.1 M Acetate Buffer, pH 5.0) and injected until the signal reached about ˜400 RU followed by a wash with 1 M ethanolamine pH 8.0 to quench remaining activated sites.
Following the capture step, a series of the peptide concentrations were prepared in HBS-EP buffer with matching DMSO concentrations to 0.1% and injected at a flow rate of […]. The resulting sensorgrams were then analyzed using a 1:1 binding model to obtain kinetic data and affinities using Scrubber 2.0 (BioLogic Software).

trypsin = experiment: Resistance to trypsin digestion; assay type: in vitro ADME; conditions: for resistance to trypsin digestion: FIG. 4
Experimental: Approximately 20% of VEGF_CKP9.54.90 was cleaved at Arg13 within loop 2 after 24 h incubation with trypsin at 37° C.

hVEGF-A = biological target: T2, hVEGF-A (Homo sapiens, UniProt P15692); experiment: KDR-CHO VEGF assay to determine cellular IC50 (VEGF mediated Tyr phosphorylation of KDR); assay type: cell-based
T2 sequence (P15692 207-395): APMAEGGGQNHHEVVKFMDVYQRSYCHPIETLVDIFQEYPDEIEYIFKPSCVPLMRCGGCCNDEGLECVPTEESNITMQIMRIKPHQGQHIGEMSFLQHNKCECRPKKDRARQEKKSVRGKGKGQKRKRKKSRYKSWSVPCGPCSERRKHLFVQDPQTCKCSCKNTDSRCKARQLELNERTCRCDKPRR

hVEGF-A (8-109) = biological target: T3, hVEGF-A (8-109) (Homo sapiens, UniProt P15692); experiment: Phage competition ELISA; assay type: binding
T3 sequence (P15692 214-315): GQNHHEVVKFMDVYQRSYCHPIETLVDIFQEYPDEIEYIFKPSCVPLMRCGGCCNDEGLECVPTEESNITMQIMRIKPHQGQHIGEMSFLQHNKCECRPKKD

[1] = IC50 against VEGF-A in in vitro and cellular assays, Table 25, improved potency compared to parent VEGF-CKP9

## CC[C@H](C)[C@@H]1NC(=O)[C@H](CC(N)=O)NC(=O)[C@@H](NC(=O)CN)CSSC[C@@H](C(=O)N[C@H](C(=O)N[C@H]2CSSC[C@@H](C(=O)NCC(=O)O)NC(=O)[C@H](CO)NC(=O)[C@H](CCC(N)=O)NC(=O)[C@H](Cc3ccc(O)cc3)NC(=O)[C@H](Cc3ccc(O)cc3)NC(=O)[C@H](CCC(N)=O)NC2=O)C(C)C)NC(=O)CNC(=O)[C@H](C)NC(=O)[C@H](CC(C)C)NC(=O)[C@@H]2CSSC[C@H](NC(=O)CNC(=O)[C@H](Cc3c[nH]c4ccccc34)NC(=O)[C@H](Cc3ccccc3)NC(=O)[C@@H]3CCCN3C(=O)[C@H](CC(C)C)NC(=O)[C@H](CCSC)NC1=O)C(=O)NCC(=O)N[C@@H](CCCNC(=N)N)C(=O)N[C@@H](CC(=O)O)C(=O)N[C@@H](Cc1ccccc1)C(=O)N[C@@H](CCC(=O)O)C(=O)N2 [VEGF_CKP9.54.90] (H-GCNIMLPFWGCGRDFECLAGCVCQYYQSCG-OH; disulfide 2-21, 11-17, 23-29; N-terminus and C-terminus assumed)
Rabbit VEGF-A
  Kd: 1.14 nM
  ka: 5.15 × 10^7
  kd: 6.75 × 10^−2
trypsin; 24 h incubation with trypsin at 37° C., read-out: fraction cleaved at Arg13 within loop 2
  metabolised at 24 h: ~20%
trypsin
  resistance to trypsin digestion: maintain a degree of resistance
hVEGF-A; Cellular IC50 (nM), Table 36, loop 3/loop 4 variants
  IC50: 1.35 nM
hVEGF-A; Cellular IC50, Table 28
  IC50: 1.35 nM
hVEGF-A; Table 36, from cellular IC50
  FOLD IMPROVEMENT RELATIVE TO VARIANT 9.54.90: 1
hVEGF-A; Table 38, F8Y and/or unnatural amino acid variants, read-out: Cellular IC50
  IC50: 1.35 nM
hVEGF-A; Table 38, from cellular IC50
  FOLD IMPROVEMENT RELATIVE TO VARIANT 9.54.90: 1

## CC[C@H](C)[C@@H]1NC(=O)[C@H](CC(=O)O)NC(=O)[C@@H]2CCCN2C(=O)CNC(=O)[C@@H]2CSSC[C@H](NC(=O)[C@H](CC(=O)O)NC1=O)C(=O)N[C@@H](CC(C)C)C(=O)N[C@@H](C)C(=O)NCC(=O)N[C@H](C(=O)N[C@H](C(=O)N[C@H]1CSSC[C@@H](C(=O)NCC(=O)O)NC(=O)[C@H](CO)NC(=O)[C@H](CC(N)=O)NC(=O)[C@H](Cc3ccc(O)cc3)NC(=O)[C@H](Cc3c[nH]c4ccccc34)NC(=O)[C@H](Cc3c[nH]cn3)NC1=O)C(C)C)CSSC[C@H](NC(=O)CN)C(=O)N[C@@H](CC(=O)O)C(=O)N[C@@H](C(C)C)C(=O)N[C@@H](CCSC)C(=O)N[C@@H](CCC(N)=O)C(=O)N1CCC[C@H]1C(=O)N[C@@H](Cc1ccc(O)cc1)C(=O)N[C@@H](Cc1c[nH]c3ccccc13)C(=O)NCC(=O)N2 [VEGF_CKP9.63.12] (H-GCDVMQPYWGCGPDIDCLAGCVCHWYNSCG-OH; disulfide 2-21, 11-17, 23-29 (inferred); N-terminus and C-terminus assumed)
Rabbit VEGF-A
  ka: 6.91 × 10^6
  kd: 1.78 × 10^−2
trypsin
  resistance to trypsin digestion: maintain a degree of resistance
hVEGF-A; Table 36, from cellular IC50
  FOLD IMPROVEMENT RELATIVE TO VARIANT 9.54.90: 0.74

## CSCC[C@@H]1NC(=O)[C@H](C(C)C)NC(=O)[C@H](CC(=O)O)NC(=O)[C@@H](NC(=O)CN)CSSC[C@@H](C(=O)N[C@H](C(=O)N[C@H]2CSSC[C@@H](C(=O)NCC(=O)O)NC(=O)[C@H](CO)NC(=O)[C@H](CC(N)=O)NC(=O)[C@H](Cc3ccc(O)cc3)NC(=O)[C@H](Cc3c[nH]c4ccccc34)NC(=O)[C@H](Cc3c[nH]cn3)NC2=O)C(C)C)NC(=O)CNC(=O)[C@H](C)NC(=O)[C@H](CC(C)C)NC(=O)[C@@H]2CSSC[C@H](NC(=O)CNC(=O)[C@H](Cc3c[nH]c4ccccc34)NC(=O)[C@H](Cc3ccc(O)cc3)NC(=O)[C@@H]3CCCN3C(=O)[C@H](CCC(N)=O)NC1=O)C(=O)N[C@@H](CCCCN)C(=O)N[C@@H](CCC(N)=O)C(=O)N[C@@H](CC(=O)O)C(=O)N[C@@H](CO)C(=O)N[C@@H](CC(=O)O)C(=O)N2 [VEGF_CKP9.63] (H-GCDVMQPYWGCKQDSDCLAGCVCHWYNSCG-OH; disulfide 2-21, 11-17, 23-29 (inferred); N-terminus and C-terminus assumed)
Rabbit VEGF-A
  Kd: 311 nM
  ka: 4.24 × 10^5
  kd: 1.30 × 10^−1
hVEGF-A (8-109)
  IC50: 146 nM
hVEGF-A; Cellular IC50, Table 25
  IC50: 140 nM
hVEGF-A; Cellular IC50, Table 28
  IC50: 140 nM
hVEGF-A; [1]
  IC50: 100 to 200 nM

## CC[C@H](C)[C@@H]1NC(=O)[C@H](CC(N)=O)NC(=O)[C@@H](NC(=O)CN)CSSC[C@@H](C(=O)N[C@H](C(=O)N[C@H]2CSSC[C@@H](C(=O)NCC(=O)O)NC(=O)[C@H](CO)NC(=O)[C@H](CCC(N)=O)NC(=O)[C@H](Cc3ccc(O)cc3)NC(=O)[C@H](Cc3ccc(O)cc3)NC(=O)[C@H](CCC(N)=O)NC2=O)C(C)C)NC(=O)CNC(=O)[C@H](C)NC(=O)[C@H](CC(C)C)NC(=O)[C@@H]2CSSC[C@H](NC(=O)CNC(=O)[C@H](Cc3c[nH]c4ccccc34)NC(=O)[C@H](Cc3ccccc3)NC(=O)[C@@H]3CCCN3C(=O)[C@H](CC(C)C)NC(=O)[C@H](CCSC)NC1=O)C(=O)N[C@@H](CCCCN)C(=O)N[C@@H](CCC(N)=O)C(=O)N[C@@H](CC(=O)O)C(=O)N[C@@H](CO)C(=O)N[C@@H](CC(=O)O)C(=O)N2 [VEGF_CKP9.54] (H-GCNIMLPFWGCKQDSDCLAGCVCQYYQSCG-OH; disulfide 2-21, 11-17, 23-29 (inferred); N-terminus and C-terminus assumed)
Rabbit VEGF-A
  Kd: 133 nM
  ka: 2.10 × 10^6
  kd: 2.74 × 10^−1
hVEGF-A (8-109)
  IC50: 450 nM
hVEGF-A; Cellular IC50, Table 25
  IC50: 188 nM
hVEGF-A; Cellular IC50, Table 28
  IC50: 188 nM
hVEGF-A; [1]
  IC50: 100 to 200 nM
